The values that follow come from patent US10125134B2 (Mirati Therapeutics, Inc., priority 2016, dated 2018).

For experiment [1], the system named is NCI-H358 cells (express KRas G12C), Phospho-ERK. Kind of experiment: Cellular inhibition of KRas G12C: Phospho-ERK in NCI-H358 cells. Type of experiment: cell-based. Conditions: Homo sapiens, pERK(Thr202/Tyr204) normalized with GAPDH, NCI-H358 cells, 3 hours, read-out: IC50. As for the experimental part:
The cellular inhibition of KRAs G12C by exemplary compounds of the present invention was determined by measuring the amount of a downstream marker of KRas activity, phosphorylated ERK (“Phospho-ERK”).
Cells were plated in poly-D-Lysine coated 96-well plates at a concentration of 50,000 cells/well and allowed to attach for 8-12 hours. Diluted compounds were then added at a final concentration of 0.5% DMSO. After 3 hours, the medium was removed, 150 μL of 4% formaldehyde was added and the plates were incubated for 20 minutes. The plates were washed with PBS, and permeabilized using 150 μL of ice cold 100% methanol for 10 minutes. Non-specific antibody binding to the plates was blocked using 100 μL Licor Blocking Buffer (Li-Cor Biotechnology, Lincoln Nebr.) for 1 hour at room temperature. Positive control samples and samples lacking cells were parallel processed with test samples as standards.
The amount Phospho-ERK was determined using an antibody specific for the phosphorylated form of ERK and compared to the amount of GAPDH. […] The plates were incubated for 2 hours at room temperature. The plates were washed with PBS+0.05% Tween 20.
Secondary antibodies used to visualize primary antibodies were added as follows: Anti-rabbit-680 diluted 1:1000 and Anti-mouse-800 diluted 1:1000 in Licor Block+0.05% Tween 20 and incubated for 1 hour at room temperature. The plates were washed with PBS+0.05% Tween 20. A 100 μL aliquot of PBS was added to each well and the plates were read on a LICOR AERIUS plate reader.
The pERK(Thr202/Tyr204) signal was normalized with the GAPDH signal and percent of DMSO control values were calculated. IC50 values were generated using a 4 parameter fit of the dose response curve. Key: “A”≥0.0001−≤1 μM; and “B”>1 μM.

In the next experiment the target is KRas G12C (Homo sapiens, UniProt P01116, C118S/C51S/C80L/G12C). Kind of experiment: KRas G12C Modification Assay (LCMS detection of covalent adduct). The format is binding. Particulars: normalized percent of control; tested at 5 μM concentration for 3 hours. The method, then:
A 10 μL aliquot of each protein solution was then transferred to a 384 well microtiter plate. Initial compound stocks were generated at fifty times their desired final assay concentration in DMSO.
Exemplary compounds of Formula (I) were diluted 25-fold into K-Ras Assay Buffer to a final of two times their final concentration. A 10 μL aliquot of each diluted compound solution was then added to each of the protein solutions in the microtiter plate to initiate reaction. […] At each time point, the reactions were quenched with 20 μL of a 25 mM acetic acid solution. […] Once all reactions were quenched, the plates were heat sealed and the samples were injected into a LC/MS system for data acquisition.
Samples were injected in their liquid phase onto a C-3 reverse phase column to remove assay buffer and prepare the samples for mass spectrometer. The proteins were eluted from the column using an acetonitrile gradient and fed directly into the mass analyzer. Initial raw data analysis took place in Agilent MassHunter software immediately post data acquisition.
Raw data analysis of the intact protein was exclusively a deconvolution of the multiple charge states of each protein in solution using a maximum entropy deconvolution provided in Mass Hunter. To minimize complexity, only the data over limited mass ranges were considered for analysis, with a minimum of one Dalton mass step intervals. The heights of all masses identified during raw data analysis were exported to be further analyzed in Spotfire® data analysis software.
Final data analysis was a multistep process in the Spotfire® data analysis software package. Briefly, each protein mass was calculated as a percent of the total signal of that sample, that percentage was then normalized to the percentage of signal of the protein in the absence of reactive compounds. Those normalized signals were reported as normalized percent of control (POC). […] Key: “A”≤25% POC; “B”>25% POC−≤50% POC; “C”>50% POC and ND=not determined.

Where a name gives a salt, the structure may show the parent alone. Read-outs that look alike come from different tables or passages of the source.

The term IC50 denotes the concentration that gives 50% inhibition. Regarding `C=CC(=O)N1CCN(c2nc(OC3CCN(C)CC3)nc3c2CCN(c2cc(O)cc4ccccc24)C3)CC1` [Example 22, 1-(4-(7-(3-hydroxynaphthalen-1-yl)-2-((1-methylpiperidin-4-yl)oxy)-5,6,7,8-tetrahydropyrido[3,4-d]pyrimidin-4-yl)piperazin-1-yl)prop-2-en-1-one], the IC50 in experiment [1] (NCI-H358, 3 h) is above 1 µM. At KRas G12C, the POC entry is recorded as “C (“C”>50% POC)”.

For the compound `C=CC(=O)N1CCN(c2nc(OC3CCN(C)C3)nc3c2CCN(c2cc(O)cc4ccccc24)C3)CC1` (stereo not shown) [Example 23, 1-(4-(7-(3-hydroxynaphthalen-1-yl)-2-((1-methylpyrrolidin-3-yl)oxy)-5,6,7,8-tetrahydropyrido[3,4-d]pyrimidin-4-yl)piperazin-1-yl)prop-2-en-1-one], the IC50 in experiment [1] (NCI-H358, 3 h) was above 1 µM. Moreover, the POC entry on KRas G12C is “C (“C”>50% POC)”.

For `C=CC(=O)N1CCN(c2nc(OC(C)CN(C)C)nc3c2CCN(c2cccc4ccccc24)C3)CC1` (stereo not shown) [Example 24, 1-(4-(2-((1-(dimethylamino)propan-2-yl)oxy)-7-(naphthalen-1-yl)-5,6,7,8-tetrahydropyrido[3,4-d]pyrimidin-4-yl)piperazin-1-yl)prop-2-en-1-one], in experiment [1] (NCI-H358, 3 h), the IC50 is above 1 µM. Moreover, on KRas G12C, the POC result is “A (“A”≤25% POC)”.

In the case of `C=CC(=O)N1CCN(c2nc(OCCCN(C)C)nc3c2CCN(C(C)c2ccccc2)C3)CC1` (stereo not shown) [Example 25, 1-(4-(2-(3-(dimethylamino)propoxy)-7-(1-phenylethyl)-5,6,7,8-tetrahydropyrido[3,4-d]pyrimidin-4-yl)piperazin-1-yl)prop-2-en-1-one], the IC50 in experiment [1] is above 1 µM. For the same compound, the POC result on KRas G12C is reported as “A (“A”≤25% POC)”.

Regarding `C=CC(=O)N1CCN(c2nc(N3CCN(CCO)CC3)nc3c2CCN(c2cc(O)cc4ccccc24)C3)CC1` [Example 26, 1-(4-(2-(4-(2-hydroxyethyl)piperazin-1-yl)-7-(3-hydroxynaphthalen-1-yl)-5,6,7,8-tetrahydropyrido[3,4-d]pyrimidin-4-yl)piperazin-1-yl)prop-2-en-1-one], the IC50 in experiment [1] (NCI-H358, 3 h) is above 1 µM. For the same compound, the POC entry at KRas G12C is listed as “C (“C”>50% POC)”.

With `C=CC(=O)N1CCN(c2nc(OCCN3CCS(=O)(=O)CC3)nc3c2CCN(c2cc(O)cc4ccccc24)C3)CC1` [Example 33, 1-(4-(2-(2-(1,1-dioxidothiomorpholino)ethoxy)-7-(3-hydroxynaphthalen-1-yl)-5,6,7,8-tetrahydropyrido[3,4-d]pyrimidin-4-yl)piperazin-1-yl)prop-2-en-1-one trifluoroacetate], the IC50 in experiment [1] (NCI-H358, 3 h) is above 1 µM. For the same compound, on KRas G12C, the POC entry is “B (“B”>25% POC−≤50% POC)”.

In the case of `C=CC(=O)N1CCN(c2nc(OCCCN3CCS(=O)(=O)CC3)nc3c2CCN(c2cc(O)cc4ccccc24)C3)CC1` [Example 34, 1-(4-(2-(3-(1,1-dioxidothiomorpholino)propoxy)-7-(3-hydroxynaphthalen-1-yl)-5,6,7,8-tetrahydropyrido[3,4-d]pyrimidin-4-yl)piperazin-1-yl)prop-2-en-1-one trifluoroacetate], the IC50 in experiment [1] (NCI-H358, 3 h) was above 1 µM. Also, the POC entry on KRas G12C was “A (“A”≤25% POC)”.

Consider `C=CC(=O)N1CCN(c2nc(OCCCCN3CCOCC3)nc3c2CCN(c2cc(O)cc4ccccc24)C3)CC1` [Example 35, 1-(4-(7-(3-hydroxynaphthalen-1-yl)-2-(4-morpholinobutoxy)-5,6,7,8-tetrahydropyrido[3,4-d]pyrimidin-4-yl)piperazin-1-yl)prop-2-en-1-one trifluoroacetate], for which the IC50 in experiment [1] (NCI-H358, 3 h) is above 1 µM. Also, on KRas G12C, the POC entry is given as “C (“C”>50% POC)”.

For `C=CC(=O)N1CCN(c2nc(O[C@H](C)CN3CCN(C(C)=O)CC3)nc3c2CCN(c2cc(O)cc4ccccc24)C3)CC1` [Example 36, (R)-1-(4-(2-((1-(4-acetylpiperazin-1-yl)propan-2-yl)oxy)-7-(3-hydroxynaphthalen-1-yl)-5,6,7,8-tetrahydropyrido[3,4-d]pyrimidin-4-yl)piperazin-1-yl)prop-2-en-1-one], the IC50 in experiment [1] (NCI-H358, 3 h) is above 1 µM. Besides, the POC entry at KRas G12C was “C (“C”>50% POC)”.

Regarding `C=CC(=O)N1CCN(c2nc(OCCN3CCN(C(C)=O)CC3)nc3c2CCN(c2cc(O)cc4ccccc24)C3)CC1` [Example 37, 1-(4-(2-(2-(4-acetylpiperazin-1-yl)ethoxy)-7-(3-hydroxynaphthalen-1-yl)-5,6,7,8-tetrahydropyrido[3,4-d]pyrimidin-4-yl)piperazin-1-yl)prop-2-en-1-one], in experiment [1] (NCI-H358, 3 h), the IC50 was above 1 µM. Also, the POC entry at KRas G12C was “C (“C”>50% POC)”.

For the compound `C=CC(=O)N1CCN(c2nc(OCCCN3CCCCC3)nc3c2CCN(c2cc(O)cc4ccccc24)C3)CC1` [Example 38, 1-(4-(7-(3-hydroxynaphthalen-1-yl)-2-(3-(piperidin-1-yl)propoxy)-5,6,7,8-tetrahydropyrido[3,4-d]pyrimidin-4-yl)piperazin-1-yl)prop-2-en-1-one], the IC50 in experiment [1] (NCI-H358, 3 h) fell in the range of 0.0001 to 1 µM. The POC entry on KRas G12C is listed as “C (“C”>50% POC)”.

For the compound `C=CC(=O)N1CCN(c2nc(OCCCN3CCCC3)nc3c2CCN(c2cc(O)cc4ccccc24)C3)CC1` [Example 39, 1-(4-(7-(3-hydroxynaphthalen-1-yl)-2-(3-(pyrrolidin-1-yl)propoxy)-5,6,7,8-tetrahydropyrido[3,4-d]pyrimidin-4-yl)piperazin-1-yl)prop-2-en-1-one], in experiment [1] (NCI-H358, 3 h), the IC50 lay within 0.0001 to 1 µM. Besides, on KRas G12C, the POC result is reported as “C (“C”>50% POC)”.

With `C=CC(=O)N1CCN(c2nc(OCCCCN(C)C)nc3c2CCN(c2cc(O)cc4ccccc24)C3)CC1` [Example 40, 1-(4-(2-(4-(dimethylamino)butoxy)-7-(3-hydroxynaphthalen-1-yl)-5,6,7,8-tetrahydropyrido[3,4-d]pyrimidin-4-yl)piperazin-1-yl)prop-2-en-1-one], the IC50 in experiment [1] (NCI-H358, 3 h) lay in the range of 0.0001 to 1 µM. In addition, on KRas G12C, the POC result is “C (“C”>50% POC)”.

On to `C=CC(=O)N1CCN(c2nc(OCCCN3CCOCC3)nc3c2CCN(c2cc(O)cc(C4CC4)c2)C3)CC1` [Example 41, 1-(4-(7-(3-cyclopropyl-5-hydroxyphenyl)-2-(3-morpholinopropoxy)-5,6,7,8-tetrahydropyrido[3,4-d]pyrimidin-4-yl)piperazin-1-yl)prop-2-en-1-one trifluoroacetate], for which the IC50 in experiment [1] was above 1 µM. Moreover, the POC entry at KRas G12C is “A (“A”≤25% POC)”.

Regarding `C=CC(=O)N1CCN(c2nc(OCCCN3CCOCC3)nc3c2CCN(c2cc(O)ccc2F)C3)CC1` [Example 42, 1-(4-(7-(2-fluoro-5-hydroxyphenyl)-2-(3-morpholinopropoxy)-5,6,7,8-tetrahydropyrido[3,4-d]pyrimidin-4-yl)piperazin-1-yl)prop-2-en-1-one], the IC50 in experiment [1] was above 1 µM. Also, the POC entry on KRas G12C is on record as “A (“A”≤25% POC)”.

Consider `C=CC(=O)N1CCN(c2nc(OCCCN3CCOCC3)nc3c2CCN(c2cc(O)cc4cc(C)ccc24)C3)CC1` [Example 43, 1-(4-(7-(3-hydroxy-6-methylnaphthalen-1-yl)-2-(3-morpholinopropoxy)-5,6,7,8-tetrahydropyrido[3,4-d]pyrimidin-4-yl)piperazin-1-yl)prop-2-en-1-one], for which the IC50 in experiment [1] is above 1 µM. Moreover, the POC entry at KRas G12C was “C (“C”>50% POC)”.

`C=CC(=O)N1CCN(c2nc(OCCCN3CCOCC3)nc3c2CCN(c2c(C)ccc4[nH]ncc24)C3)CC1` [Example 44, 1-(4-(7-(5-methyl-1H-indazol-4-yl)-2-(3-morpholinopropoxy)-5,6,7,8-tetrahydropyrido[3,4-d]pyrimidin-4-yl)piperazin-1-yl)prop-2-en-1-one]: the IC50 in experiment [1] was above 1 µM. The POC result on KRas G12C is given as “C (“C”>50% POC)”.
